# US5985822A, “Inhibition of glial cell proliferation with N-CAM homophilic peptides” (The Scripps Research Institute, priority 1995, dated 1999)
# Like-named read-outs stand apart in the source and are kept apart here.
# B1: N-CAM purified from embryonic chick brain: N-CAM purified from embryonic chick brain, which binds to rodent N-CAM (protein, UniProt P13590 20-1091, looked up)
# Neural cell adhesion molecule …: LQVDIVPSQGEISVGESKFFLCQVAGEAKYKDISWFSPNGEKLTPNQQRISVVRNDDFSSTLTIYNANIDDAGIYKCVVSSVEEGDSEATVNVKIFQKLMFKNAPTPQEFKEGDDAVIVCDVVSSLPPTIIWKHKGRDVMLKKDVRFIVLSNNYLQIRGIKKTDEGTYRCEGRILARGEINFKDIQVIVNVPPSVRARQSTMNATANLSQSVTLACDADGFPEPTMTWTKDGEPIEQEDNEEKYSFNYDGSELIIKKVDKSDEAEYICIAENKAGEQDATIHLKVFAKPKITYVENKTAMELEDQITLTCEASGDPIPSITWKTSTRNISNEEKTLDGRIVVRSHARVSSLTLKEIQYTDAGEYVCTASNTIGQDSQAMYLEVQYAPKLQGPVAVYTWEGNQVNITCEVFAYPSAVISWFRDGQLLPSSNYSNIKIYNTPSASYLEVTPDSENDFGNYNCTAVNRIGQESSEFILVQADTPSSPSIDRVEPYSSTARVEFDEPEATGGVPILKYKAEWRALGEGEWHSRLYDAKEANVEGTITISGLKPETTYSVRLSAVNGKGVGEISLPSDFKTQPVREPSAPKLEGQMGEDGNSIKVNVIKQDDGGSPIRHYLIKYKAKHSSEWKPEIRLPSGIDHVMLKSLDWNAEYEVYVIAENQQGKSKPAHYAFRTSAQPTVIPASTSPTSGLGTAAIVGILIVIFVLLLVAVDVTCYFLNKCGLLMCIAVNLCGKSGPGAKGKDMEEGKAAFSKDESKEPIVEVRTEEERTPNHDGGKHTEPNETTPLTEPEHTADTAATVEDMLPSVTTGTTNSDTITETFATAQNSPTSETTTLTSSIAPPATAIPDSNAMSPGQATPAKAGASPVSPPPPSSTPKVAPLVDLSDTPSSAPATNNLSSSVLSNQGAVLSPSTVANMAETSKAAAGNKSAAPTPANLTSPPAPSEPKQEVSSTKSPEKEAAQPSTVKSPTETAKNPSNPKSEAASGGTTNPSQNEDFKMDEGTFKTPDIDLAKDVFAALGTTTPASVASGQARELASSTADSSVPAAPAKTEKTPVEDKSEVQATEIRHLQQK
# B2: N-CAM treated with neuraminidase: purified N-CAM treated with neuraminidase to remove sialic acid (protein, UniProt P13596 20-858, looked up)
# Neural cell adhesion molecule …: LQVDIVPSQGEISVGESKFFLCQVAGDAKDKDISWFSPNGEKLSPNQQRISVVWNDDDSSTLTIYNANIDDAGIYKCVVTAEDGTQSEATVNVKIFQKLMFKNAPTPQEFKEGEDAVIVCDVVSSLPPTIIWKHKGRDVILKKDVRFIVLSNNYLQIRGIKKTDEGTYRCEGRILARGEINFKDIQVIVNVPPTVQARQSIVNATANLGQSVTLVCDADGFPEPTMSWTKDGEPIENEEEDDEKHIFSDDSSELTIRNVDKNDEAEYVCIAENKAGEQDASIHLKVFAKPKITYVENQTAMELEEQVTLTCEASGDPIPSITWRTSTRNISSEEKASWTRPEKQETLDGHMVVRSHARVSSLTLKSIQYTDAGEYICTASNTIGQDSQSMYLEVQYAPKLQGPVAVYTWEGNQVNITCEVFAYPSATISWFRDGQLLPSSNYSNIKIYNTPSASYLEVTPDSENDFGNYNCTAVNRIGQESLEFILVQADTPSSPSIDRVEPYSSTAQVQFDEPEATGGVPILKYKAEWKSLGEEAWHSKWYDAKEANMEGIVTIMGLKPETRYAVRLAALNGKGLGEISAATEFKTQPVREPSAPKLEGQMGEDGNSIKVNLIKQDDGGSPIRHYLVKYRALASEWKPEIRLPSGSDHVMLKSLDWNAEYEVYVVAENQQGKSKAAHFVFRTSAQPTAIPANGSPTAGLSTGAIVGILIVIFVLLLVVMDITCYFLNKCGLLMCIAVNLCGKAGPGAKGKDMEEGKAAFSKDESKEPIVEVRTEEERTPNHDGGKHTEPNETTPLTEPEKGPVETKSEPQESEAKPAPTEVKTVPNEATQTKENESKA
# modifications: desialylated by neuraminidase
# notes: purified N-CAM treated with neuraminidase to remove sialic acid
# Assays:
# [1] = system: rat forebrain astrocytes in primary culture; assay: Astrocyte proliferation assay ([3H]-thymidine incorporation normalized to [35S]-methionine); format: cell-based; details: for effect of oligonucleotide preincubation on inhibition of proliferation by N-CAM: 200 nM oligonucleotide 48 hours before 2 μg/ml N-CAM; for effect of oligonucleotide alone on proliferation: 200 nM, no N-CAM added; for effect of drug on the ability of N-CAM to inhibit astrocyte proliferation (in words): drug in the presence of N-CAM; for Drug Alone: means of triplicate (Table 5)
# Protocol: Primary cultures of astrocytes were prepared from the forebrains of 4-5 day old neonatal rats. After decapitation and removal of the forebrains from the skull, the meninges were carefully peeled off, and forebrain tissue was triturated in sterile phosphate buffered saline (PBS) using firepolished pipettes. The resulting suspension of tissue fragments was incubated in Hank's balanced salt solution (Gibco BRL) with 2.5 mg/ml trypsin, 1 mM EDTA and 0.1 mg/ml DNase (Boehringer) at 37° C. for 15 minutes. […] The pellet was resuspended in serum free medium (SFM) consisting of Dulbecco's Modified Eagle Medium (D-MEM), 2 mM L-glutamine, 50 U/ml penicillin G sodium and 50 μg/ml streptomycin sulfate (all from Gibco BRL) supplemented by 10% (vol/vol) fetal bovine serum (FBS). The cells were transferred to a standard 100 mm tissue culture dish (Falcon) and incubated at 37° C. for 1-2 hours. After mild shaking, the supernatant containing unattached cells was transferred to a 100 mm collagen-coated dish. […] Cell samples were checked regularly for the expression of GFAP, a marker for astrocytes.
# After cell attachment, the culture medium was exchanged for SFM. In antisense experiments, oligonucleotides were added at the same time (T=0). […] After another 12 hours (at T=60), [^3 H]-thymidine (New England Nuclear, 20 Ci/mmol) was added (0.38 μM, 10 μCi/ml). Following an additional 12 hours (T=72), the wells were drained, counts precipitated by ice-cold […] trichloroacetic acid, and the plates left to dry. Counts were solubilized overnight by adding 100 μl 1 N KOH to each well, neutralized with 100 μl 1 N HCl, transferred to liquid scintillation vials and counted in 3 ml of Beckman Ready Safe liquid scintillation cocktail on a Packard 1600 TR counter. […] In this paper, proliferation is expressed as [^3 H]-thymidine incorporation normalized to [35]-methionine incorporation and calculated as [^3 H] dpm/ [35] dpm.
# [2] = system: N-CAM; assay: Levels of N-CAM expression in astrocytes by Western blotting (antisense experiments); format: cell-based, rat; details: oligonucleotide added for 48 hours
# Protocol: The amounts of N-CAM present in astrocytes were quantified by Western blotting. Cultures were grown as described and cellular material was lysed in buffer (phosphate buffered saline, pH 7.4, containing 0.5% NP-40, 350 μg/ml PMSF, 2 μg/ml aprotinin, 0.5 μg/ml leupeptin, and 0.7 μg/ml pepstatin A) at 4° C. Standard Western blotting techniques were employed either using cell lysate directly or after N-CAM immunoprecipitation. [^125 I]-Immunolabeled N-CAM was estimated by densitometry on a Molecular Dynamics PhosporImager using ImageQuant software.
# […]. After deprotection, the oligonucleotides were purified using HPLC, ethanol precipitated, solubilized in distilled water and added to the culture medium at the indicated concentrations.
molecule,measurement,setting,value
"5'-AGAUCCUUAG WUCGCAGCAUUGUA-3' (antisense AGAUCCUUAGUUCGCAGCAUUGUA; phosphorothioate linkages, further chemistry not given here) [N-CAM antisense RNA, phosphorothioate oligoribonucleotide complementary to position 205 to 228 of rat N-CAM]",effect of oligonucleotide preincubation on inhibition of proliferation by N-CAM,[1],weaker inhibitory effect of N-CAM on proliferation
same,effect of oligonucleotide alone on proliferation,[1],no effect on proliferation
same,effect on N-CAM expression (in words),[2],significantly reduced N-CAM expression
5'-GUCCAUGUACAUCUAGUCAGUUGA-3 (chemistry not given here) [random antisense RNA],effect of oligonucleotide preincubation on inhibition of proliferation by N-CAM,[1],no such effect
same,effect of oligonucleotide alone on proliferation,[1],no effect on proliferation
same,effect on N-CAM expression (in words),[2],no effect on N-CAM expression
same,"N-CAM level (sum of all molecular forms, mostly 140 kD and 120 kD)",[2]; mean ± S.E.M. (n),87 ± 18 % Control
"CCCCC/C=C\C/C=C\C/C=C\C/C=C\CCCC(=O)O [Arachidonic Acid, arachidonic acid]","[3H]-thymidine incorporation, Drug + N-CAM",[1]; drug 10 μM plus N-CAM 2 μg/ml,60 ± 12 % SFM Ctrl
same,"[3H]-thymidine incorporation, Drug alone","[1]; drug 10 μM, 2×10^5 cells/ml",107 ± 10 % SFM Ctrl
same,effect of drug on the ability of N-CAM to inhibit astrocyte proliferation (in words),[1],had no effect on the ability of N-CAM to inhibit astrocyte proliferation
"C=C[C@@]1(C)CC(=O)[C@]2(O)[C@@]3(C)[C@@H](O)CCC(C)(C)[C@@H]3[C@H](O)[C@H](OC(C)=O)[C@@]2(C)O1 [Forskolin, forskolin]","[3H]-thymidine incorporation, Drug alone","[1]; drug 1 μM, 2×10^5 cells/ml",73 ± 2 % SFM Ctrl
same,"[3H]-thymidine incorporation, Drug alone","[1]; drug 10 μM, 2×10^5 cells/ml",32 ± 6 % SFM Ctrl
same,effect of drug on astrocyte proliferation (in words),"[1]; drug alone, astrocyte cultures",blocks proliferation of astrocytes in culture
C[C@]12O[C@H](C[C@]1(O)C(=O)O)n1c3ccccc3c3c4c(c5c6ccccc6n2c5c31)CNC4=O [K252b],"[3H]-thymidine incorporation, Drug + N-CAM",[1]; drug 100 nM plus N-CAM 2 μg/ml,85 ± 5 % SFM Ctrl
same,"[3H]-thymidine incorporation, Drug alone","[1]; drug 100 nM, 2×10^5 cells/ml",98 ± 17 % SFM Ctrl
same,"[3H]-thymidine incorporation, Drug + N-CAM",[1]; drug 200 nM plus N-CAM 2 μg/ml,64 ± 1 % SFM Ctrl
same,"[3H]-thymidine incorporation, Drug alone","[1]; drug 200 nM, 2×10^5 cells/ml",78 ± 15 % SFM Ctrl
same,effect of drug on the ability of N-CAM to inhibit astrocyte proliferation (in words),[1],allowed the astrocytes cells to grow normally
"COC(=O)C=Cc1cc(O)ccc1O [Methyl 2,5-dihydroxycinnamate, methyl 2,5-dihydroxycinnamate]",Drug + Ig3,[1]; drug 0.25 μg/ml plus Ig3 2 μg/ml (Table 5),59 % of SFM Control
same,Drug + N-CAM,[1]; drug 0.25 μg/ml plus N-CAM 2 μg/ml (Table 5),60 % of SFM Control
same,Drug Alone,"[1]; drug 0.25 μg/ml, 2×10^5 cells/ml",65 % of SFM Control
CCCCCCCCCCCCCC(=O)O[C@@H]1[C@@H](C)[C@@]2(O)[C@@H](C=C(CO)C[C@]3(O)C(=O)C(C)=C[C@@H]23)[C@@H]2C(C)(C)[C@]12OC(C)=O [PMA],effect of drug on astrocyte proliferation (in words),[1],strong mitogenic response
same,"[3H]-thymidine incorporation, Drug alone","[1]; drug 10 nM, 2×10^5 cells/ml",138 ± 16 % SFM Ctrl
same,"[3H]-thymidine incorporation, Drug + N-CAM",[1]; drug 100 nM plus N-CAM 2 μg/ml,228 % SFM Ctrl
same,"[3H]-thymidine incorporation, Drug alone","[1]; drug 100 nM, 2×10^5 cells/ml",268 ± 34 % SFM Ctrl
Pertussis Toxin,effect of drug on astrocyte proliferation (in words),[1],slightly inhibited astrocyte proliferation
same,"[3H]-thymidine incorporation, Drug + N-CAM",[1]; drug 1 μg/ml plus N-CAM 2 μg/ml,57 ± 13 % SFM Ctrl
same,"[3H]-thymidine incorporation, Drug alone","[1]; drug 1 μg/ml, 2×10^5 cells/ml",67 ± 13 % SFM Ctrl
same,"[3H]-thymidine incorporation, Drug + N-CAM",[1]; drug .5 μg/ml plus N-CAM 2 μg/ml,53 ± 9 % SFM Ctrl
same,"[3H]-thymidine incorporation, Drug alone","[1]; drug .5 μg/ml, 2×10^5 cells/ml",74 ± 20 % SFM Ctrl
same,effect of drug on the ability of N-CAM to inhibit astrocyte proliferation (in words),[1],N-CAM was still able to inhibit proliferation
"bFGF: basic fibroblast growth factor, Upstate Biotechnology Incorporated",proliferation as compared to cultures in SFM,"[1]; 20 ng/ml bFGF, n=12",347±56%
calphostin C,effect of drug on astrocyte proliferation (in words),[1],inhibits proliferation
same,"[3H]-thymidine incorporation, Drug alone","[1]; drug 0.1 μM, 2×10^5 cells/ml",111 ± 35 % SFM Ctrl
same,"[3H]-thymidine incorporation, Drug alone","[1]; drug 0.5 μM, 2×10^5 cells/ml",54 ± 35 % SFM Ctrl
mastoparan,effect of drug on astrocyte proliferation (in words),[1],stimulated astrocyte proliferation
same,Drug + Ig3,[1]; drug 50 μM plus Ig3 2 μg/ml (Table 5),192.5 % of SFM Control
same,"[3H]-thymidine incorporation, Drug + N-CAM",[1]; drug 50 μM plus N-CAM 2 μg/ml (Table 4),205 ± 30 % SFM Ctrl
same,Drug + N-CAM,[1]; drug 50 μM plus N-CAM 2 μg/ml (Table 5),202.5 % of SFM Control
same,"[3H]-thymidine incorporation, Drug alone","[1]; drug 50 μM, 2×10^5 cells/ml (Table 4)",213 ± 47 % SFM Ctrl
same,Drug Alone,"[1]; drug 50 μM, 2×10^5 cells/ml",210 % of SFM Control
same,effect of drug on the ability of N-CAM to inhibit astrocyte proliferation (in words),[1],not inhibited by the concentration of N-CAM used
B1,effect on astrocyte proliferation (in words),[1]; added to astrocyte cultures in SFM,also inhibited proliferation
B2,[3H]-thymidine incorporation vs. SFM control,"[1]; 2 μg/ml, n=2",24±4%
